{"source": "patent EP0118750A2", "about": "“Regeneration of NAD(P) cofactor” (PHILLIPS PETROLEUM COMPANY, priority 1983, dated 1984)", "data": [{"molecular_target": "T1, horse liver alcohol dehydrogenase (Equus caballus, UniProt P00327)", "T1 construct": "0.5 mL horse liver-alcohol dehydrogenase solution (Sigma-1 mg/mL); purchased Sigma; host or cells: horse liver", "T1 sequence (P00327 2-375 limits assumed)": "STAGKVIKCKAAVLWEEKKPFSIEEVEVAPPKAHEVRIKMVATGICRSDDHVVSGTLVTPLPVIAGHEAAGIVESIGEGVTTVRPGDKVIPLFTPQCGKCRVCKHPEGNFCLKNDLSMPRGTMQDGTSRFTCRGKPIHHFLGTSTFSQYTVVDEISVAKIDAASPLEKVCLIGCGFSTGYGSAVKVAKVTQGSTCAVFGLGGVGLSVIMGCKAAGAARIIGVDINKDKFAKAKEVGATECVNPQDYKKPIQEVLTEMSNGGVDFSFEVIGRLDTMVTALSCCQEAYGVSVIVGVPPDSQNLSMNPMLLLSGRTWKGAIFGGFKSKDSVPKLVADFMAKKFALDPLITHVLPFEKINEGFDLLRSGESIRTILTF", "experiment": "Dissolved oxygen decrease on adding alcohol substrates to the cofactor regeneration system (NAD, HL-ADH, acetaldehyde, alcohol oxidase)", "assay_type": "biochemical", "conditions": "relative decrease in dissolved oxygen level upon addition of 0.1 mL of 2.5 vol % solution of the alcohol; phosphate buffer pH 8", "protocol": "The following reagents were admixed in a small beaker: • 2.7 mL aerated potassium phosphate buffer (0.05 M; pH 8) • 0.01 mL of NAD solution (10 mg/mL or 0.025 M) • 0.5 mL horse liver-alcohol dehydrogenase solution (Sigma-1 mg/mL) • 0.1 mL of 1 M acetaldehyde • 0.1 mL of saturated alcohol oxidase (~ 10 mg/mL, prepared as described in example I)\nA dissolved oxygen probe, connected to an electronic signal differentiator, was placed in the above prepared solution. The relative decrease in dissolved oxygen level (ADO) was monitored upon addition of 0.1 mL of 2.5 vol % solutions of several alcohols: […]", "values": [{"smiles": "CCC(C)O", "note": "(stereo not shown) [2-butanol]", "ΔDO": "Yes"}, {"smiles": "OCCCCO", "note": "[1,4-butanediol]", "ΔDO": "Yes"}, {"smiles": "OC=CCCO", "note": "[3-buten-1,4-diol]", "ΔDO": "Yes"}, {"smiles": "OC1CCCCC1", "note": "[cyclohexanol]", "ΔDO": "Yes"}, {"smiles": "C=CCCCCCCCCO", "note": "[9-decen-1-ol]", "ΔDO": "Yes"}, {"smiles": "CC(C)(C)O", "note": "[tertiary butanol]", "ΔDO": "No"}, {"smiles": "C=CC(C)O", "note": "(stereo not shown) [3-buten-2-ol]", "ΔDO": "Yes"}]}]}
